Measured values: patent publication US5475029A, “Farnesyl compounds as cholesterol lowering agents” (The Board of Trustees of the Leland Stanford Junior …, priority 1993, dated 1995)

System: HMG-CoA reductase
Test: HMG-CoA reductase synthesis rate ([35S]methionine incorporation)
Assay type: cell-based
Conditions: 10 μg/ml
Procedure: Measurement of HMGal and HMG-CoA Reductase Synthesis Rates Cells plated into 60×15 mm dishes were grown in 5% LPS MEM with 0.25 mg/ml active geneticin for 24 hours. These cells were washed with PBS and grown for 24 hours in 5% LPS MEM supplemented with 0.25 mg/ml active geneticin, 10 μM compactin and 0.1 mM mevalonate. After 24 hours, the medium was removed, the cells were washed with PBS and the medium was replaced with methionine-free MEM supplemented with 5% LPS, 250 μg/ml of active geneticin, 10 μM compactin, and 0.1 mM mevalonate. In addition, 20 mM mevalonate or 10 μg/ml farnesyl acetate was included in those plates previously treated with these compounds. […] Cells were washed, lysed and the HMGal and HMG-CoA reductase proteins were immunoprecipitated, subjected to SDS-PAGE and quantified. […]
Farnesyl compounds reduce translation and stimulate degradation of HMG-CoA reductase and HMGal A reduction in HMGal specific activity triggered by the farnesyl compounds could have been the result of a decrease in HMGal synthesis, an increase in HMGal degradation, or a combination of changes in both the synthesis and degradation rates. In order to test whether the farnesyl compounds impact synthesis, the rates of HMGal, HMG-CoA reductase, and total cellular protein synthesis were measured by [^35 S]methionine incorporation in the presence and absence of 10 μg/ml farnesyl acetate.

CC(=O)OCC=C(C)CCC=C(C)CCC=C(C)C [farnesyl acetate]
reduction in the rate of HMG-CoA reductase synthesis: 60%
